From the kinase profiling compilation of Christmann-Franck et al. (2016)

Assays:
Assay in all cases: KINOMEscan competition binding
Conditions in all cases: compound 10.0 µM
MAP2K2 (human) = MAP2K2 (human) (UniProt P36507)
MLTK (human) = MLTK (human) (UniProt Q9NYL2)
CSNK1G1 (human) = CSNK1G1 (human) (UniProt Q9HCP0)
PAK7 (human) = PAK7 (human) (UniProt Q9P286)
STK32B (human) = STK32B (human) (UniProt Q9NY57)
SLK (human) = SLK (human) (UniProt Q9H2G2)
PDGFRA (human) = PDGFRA (human) (UniProt P16234)
MAP2K6 (human) = MAP2K6 (human) (UniProt P52564)
FGFR3 (human) = FGFR3 (human) (UniProt P22607)
DCLK1 (human) = DCLK1 (human) (UniProt O15075)
Chain of DCLK1 (human) (O15075 whole entry, looked up): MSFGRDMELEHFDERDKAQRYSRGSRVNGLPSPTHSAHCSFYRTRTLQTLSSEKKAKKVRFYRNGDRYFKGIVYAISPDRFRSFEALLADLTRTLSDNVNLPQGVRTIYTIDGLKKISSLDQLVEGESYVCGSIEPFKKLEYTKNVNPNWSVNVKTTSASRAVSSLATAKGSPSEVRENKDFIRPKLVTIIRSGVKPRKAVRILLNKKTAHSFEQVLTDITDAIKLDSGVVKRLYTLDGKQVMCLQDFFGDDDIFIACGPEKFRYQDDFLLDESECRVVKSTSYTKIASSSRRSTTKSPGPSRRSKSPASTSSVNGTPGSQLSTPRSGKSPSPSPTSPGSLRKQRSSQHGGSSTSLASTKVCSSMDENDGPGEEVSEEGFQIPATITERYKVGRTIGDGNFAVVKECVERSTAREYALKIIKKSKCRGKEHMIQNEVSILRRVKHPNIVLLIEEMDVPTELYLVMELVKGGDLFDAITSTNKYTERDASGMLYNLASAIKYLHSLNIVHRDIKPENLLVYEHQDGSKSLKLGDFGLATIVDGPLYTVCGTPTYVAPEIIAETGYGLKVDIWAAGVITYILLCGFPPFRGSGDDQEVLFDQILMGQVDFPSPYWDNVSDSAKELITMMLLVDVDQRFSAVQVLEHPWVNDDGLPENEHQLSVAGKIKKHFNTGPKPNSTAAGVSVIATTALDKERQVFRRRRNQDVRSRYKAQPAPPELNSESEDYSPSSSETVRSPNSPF

MAP4K1 (human) = MAP4K1 (human) (UniProt Q92918)
MAP3K10 (human) = MAP3K10 (human) (UniProt Q02779)
PAK4 (human) = PAK4 (human) (UniProt O96013)
STK38L (human) = STK38L (human) (UniProt Q9Y2H1)
Chain of STK38L (human) (Q9Y2H1 whole entry, looked up): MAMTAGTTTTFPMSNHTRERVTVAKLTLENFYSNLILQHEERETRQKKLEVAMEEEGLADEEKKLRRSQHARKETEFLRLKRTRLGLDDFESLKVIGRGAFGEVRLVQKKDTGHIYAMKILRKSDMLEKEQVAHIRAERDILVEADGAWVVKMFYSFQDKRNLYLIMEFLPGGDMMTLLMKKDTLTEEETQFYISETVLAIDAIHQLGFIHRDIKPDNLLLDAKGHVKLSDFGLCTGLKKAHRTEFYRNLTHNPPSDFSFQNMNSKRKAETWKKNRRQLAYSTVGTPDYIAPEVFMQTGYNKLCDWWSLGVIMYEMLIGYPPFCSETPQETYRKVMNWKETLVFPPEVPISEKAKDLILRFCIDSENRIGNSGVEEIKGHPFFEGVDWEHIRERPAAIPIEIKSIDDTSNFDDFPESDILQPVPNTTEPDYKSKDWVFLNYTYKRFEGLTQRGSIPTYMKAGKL

EPHA1 (human) = EPHA1 (human) (UniProt P21709)
MINK1 (human) = MINK1 (human) (UniProt Q8N4C8)
MAP2K4 (human) = MAP2K4 (human) (UniProt P45985)
STK16 (human) = STK16 (human) (UniProt O75716)
PIM2 (human) = PIM2 (human) (UniProt Q9P1W9)
NTRK3 (human) = NTRK3 (human) (UniProt Q16288)
TTK (human) = TTK (human) (UniProt P33981)
EPHA8 (human) = EPHA8 (human) (UniProt P29322)
FLT3 (human) = FLT3 (human) (UniProt P36888)
MAPK10 (human) = MAPK10 (human) (UniProt P53779)
Chain of MAPK10 (human) (P53779 whole entry, looked up): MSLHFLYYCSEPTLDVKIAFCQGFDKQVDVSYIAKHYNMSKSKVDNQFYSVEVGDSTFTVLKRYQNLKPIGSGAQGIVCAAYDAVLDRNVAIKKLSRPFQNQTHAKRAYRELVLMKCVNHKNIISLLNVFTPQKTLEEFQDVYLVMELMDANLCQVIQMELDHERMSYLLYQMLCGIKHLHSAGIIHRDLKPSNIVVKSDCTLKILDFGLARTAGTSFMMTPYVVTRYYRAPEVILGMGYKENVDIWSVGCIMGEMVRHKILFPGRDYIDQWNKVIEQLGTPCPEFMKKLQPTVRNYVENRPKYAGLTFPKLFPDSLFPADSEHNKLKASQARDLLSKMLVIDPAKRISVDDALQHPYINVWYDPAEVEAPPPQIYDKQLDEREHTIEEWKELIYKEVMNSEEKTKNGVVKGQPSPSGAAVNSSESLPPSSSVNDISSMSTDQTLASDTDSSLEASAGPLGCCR

[1] = test system: EIF2AK4 KD2 (human), Q9P2K8 [S808G]
LCK (human) = LCK (human) (UniProt P06239)
Chain of LCK (human) (P06239 whole entry, looked up): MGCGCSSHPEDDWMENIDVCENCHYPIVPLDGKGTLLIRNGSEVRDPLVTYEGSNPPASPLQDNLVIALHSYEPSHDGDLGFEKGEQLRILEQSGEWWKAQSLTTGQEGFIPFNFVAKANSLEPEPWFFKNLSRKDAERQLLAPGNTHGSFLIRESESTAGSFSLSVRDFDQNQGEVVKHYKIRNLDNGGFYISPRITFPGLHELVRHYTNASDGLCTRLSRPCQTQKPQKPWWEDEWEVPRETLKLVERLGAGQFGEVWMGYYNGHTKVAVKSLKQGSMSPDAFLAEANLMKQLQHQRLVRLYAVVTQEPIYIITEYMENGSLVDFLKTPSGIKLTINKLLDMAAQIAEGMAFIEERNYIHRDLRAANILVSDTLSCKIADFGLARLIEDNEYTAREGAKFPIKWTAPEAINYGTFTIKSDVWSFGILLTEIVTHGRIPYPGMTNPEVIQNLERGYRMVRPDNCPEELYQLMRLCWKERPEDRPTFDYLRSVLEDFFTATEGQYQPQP

TAOK3 (human) = TAOK3 (human) (UniProt Q9H2K8)
NTRK1 (human) = NTRK1 (human) (UniProt P04629)
SRMS (human) = SRMS (human) (UniProt Q9H3Y6)
Chain of SRMS (human) (Q9H3Y6 whole entry, looked up): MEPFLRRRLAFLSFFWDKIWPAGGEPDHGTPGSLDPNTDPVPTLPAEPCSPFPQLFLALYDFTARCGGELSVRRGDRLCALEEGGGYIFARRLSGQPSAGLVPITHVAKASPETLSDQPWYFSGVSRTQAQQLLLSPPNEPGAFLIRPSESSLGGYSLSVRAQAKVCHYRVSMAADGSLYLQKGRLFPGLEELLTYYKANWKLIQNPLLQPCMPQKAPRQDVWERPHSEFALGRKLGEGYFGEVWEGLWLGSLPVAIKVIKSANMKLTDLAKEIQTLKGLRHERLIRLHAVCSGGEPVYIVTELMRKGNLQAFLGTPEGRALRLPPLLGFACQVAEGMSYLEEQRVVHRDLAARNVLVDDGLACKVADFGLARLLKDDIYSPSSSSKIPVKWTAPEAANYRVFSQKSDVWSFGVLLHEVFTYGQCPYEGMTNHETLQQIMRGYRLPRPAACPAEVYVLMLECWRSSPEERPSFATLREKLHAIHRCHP

BLK (human) = BLK (human) (UniProt P51451)
GAK (human) = GAK (human) (UniProt O14976)
FER (human) = FER (human) (UniProt P16591)
BMPR1B (human) = BMPR1B (human) (UniProt O00238)
RPS6KA1 KD1 (human) = RPS6KA1 KD1 (human) (UniProt Q15418)
FGFR2 (human) = FGFR2 (human) (UniProt P21802)
MKNK2 (human) = MKNK2 (human) (UniProt Q9HBH9)
Chain of MKNK2 (human) (Q9HBH9 whole entry, looked up): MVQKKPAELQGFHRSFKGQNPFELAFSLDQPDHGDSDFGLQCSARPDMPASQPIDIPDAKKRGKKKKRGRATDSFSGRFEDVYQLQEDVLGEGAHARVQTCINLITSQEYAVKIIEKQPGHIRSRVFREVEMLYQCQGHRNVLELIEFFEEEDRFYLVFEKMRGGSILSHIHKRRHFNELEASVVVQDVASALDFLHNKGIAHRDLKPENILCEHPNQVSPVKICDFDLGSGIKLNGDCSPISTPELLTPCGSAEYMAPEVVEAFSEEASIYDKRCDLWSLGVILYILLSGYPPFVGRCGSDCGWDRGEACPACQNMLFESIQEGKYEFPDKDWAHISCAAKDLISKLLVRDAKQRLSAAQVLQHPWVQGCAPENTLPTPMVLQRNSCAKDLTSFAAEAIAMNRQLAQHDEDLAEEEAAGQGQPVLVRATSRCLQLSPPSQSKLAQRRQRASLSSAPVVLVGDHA

FES (human) = FES (human) (UniProt P07332)
GSK3B (human) = GSK3B (human) (UniProt P49841)
Chain of GSK3B (human) (P49841 whole entry, looked up): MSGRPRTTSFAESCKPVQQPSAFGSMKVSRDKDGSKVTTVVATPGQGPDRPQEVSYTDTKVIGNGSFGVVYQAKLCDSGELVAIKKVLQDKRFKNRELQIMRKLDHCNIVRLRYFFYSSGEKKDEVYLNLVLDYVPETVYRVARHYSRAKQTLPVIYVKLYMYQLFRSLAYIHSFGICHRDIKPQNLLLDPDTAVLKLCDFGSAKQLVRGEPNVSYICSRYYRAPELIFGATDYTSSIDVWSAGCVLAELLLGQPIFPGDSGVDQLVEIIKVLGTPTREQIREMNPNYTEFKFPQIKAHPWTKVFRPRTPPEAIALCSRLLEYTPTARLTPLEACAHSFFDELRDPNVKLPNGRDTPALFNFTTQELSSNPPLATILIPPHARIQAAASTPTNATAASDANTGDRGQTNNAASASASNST

RPS6KA3 KD1 (human) = RPS6KA3 KD1 (human) (UniProt P51812)
DYRK1B (human) = DYRK1B (human) (UniProt Q9Y463)

Chain of MAP2K2 (human) (P36507 whole entry, looked up): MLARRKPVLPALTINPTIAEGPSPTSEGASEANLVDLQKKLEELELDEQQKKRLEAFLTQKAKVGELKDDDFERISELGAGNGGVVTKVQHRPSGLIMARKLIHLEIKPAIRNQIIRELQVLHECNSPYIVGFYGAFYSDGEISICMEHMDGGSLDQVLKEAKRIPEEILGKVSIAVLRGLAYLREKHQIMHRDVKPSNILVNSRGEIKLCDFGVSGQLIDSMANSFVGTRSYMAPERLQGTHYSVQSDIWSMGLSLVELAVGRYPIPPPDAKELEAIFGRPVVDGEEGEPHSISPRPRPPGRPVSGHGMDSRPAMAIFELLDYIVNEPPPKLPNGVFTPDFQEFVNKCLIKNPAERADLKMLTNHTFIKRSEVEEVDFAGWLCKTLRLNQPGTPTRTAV
Chain of MLTK (human) (Q9NYL2 whole entry, looked up): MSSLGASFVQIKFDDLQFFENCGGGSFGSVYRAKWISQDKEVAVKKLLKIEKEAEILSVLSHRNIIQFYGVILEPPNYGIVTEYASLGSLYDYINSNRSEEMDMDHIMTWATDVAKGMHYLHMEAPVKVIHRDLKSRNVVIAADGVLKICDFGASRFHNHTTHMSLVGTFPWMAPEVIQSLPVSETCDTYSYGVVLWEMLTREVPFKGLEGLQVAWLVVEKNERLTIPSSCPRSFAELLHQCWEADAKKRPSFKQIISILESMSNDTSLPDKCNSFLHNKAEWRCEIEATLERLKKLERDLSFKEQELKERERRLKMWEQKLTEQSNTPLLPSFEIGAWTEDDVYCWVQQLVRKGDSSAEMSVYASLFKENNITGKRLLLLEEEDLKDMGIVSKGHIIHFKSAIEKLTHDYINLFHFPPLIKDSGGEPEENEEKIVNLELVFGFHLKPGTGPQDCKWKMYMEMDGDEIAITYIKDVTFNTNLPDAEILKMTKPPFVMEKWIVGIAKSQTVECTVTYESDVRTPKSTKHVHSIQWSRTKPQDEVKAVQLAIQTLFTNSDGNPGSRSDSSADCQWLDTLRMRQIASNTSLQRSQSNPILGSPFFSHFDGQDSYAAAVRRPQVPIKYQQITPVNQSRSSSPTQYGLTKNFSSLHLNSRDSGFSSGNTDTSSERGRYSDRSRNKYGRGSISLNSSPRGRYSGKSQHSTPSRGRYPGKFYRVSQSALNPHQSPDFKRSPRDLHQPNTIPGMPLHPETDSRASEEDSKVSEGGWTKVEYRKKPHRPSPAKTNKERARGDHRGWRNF

| Structure (SMILES) | kinase still bound, per cent of control (MAP2K2 (human)) [%] | kinase still bound, per cent of control (MLTK (human)) [%] | kinase still bound, per cent of control (CSNK1G1 (human)) [%] | kinase still bound, per cent of control (PAK7 (human)) [%] | kinase still bound, per cent of control (STK32B (human)) [%] | kinase still bound, per cent of control (SLK (human)) [%] | kinase still bound, per cent of control (PDGFRA (human)) [%] | kinase still bound, per cent of control (MAP2K6 (human)) [%] | kinase still bound, per cent of control (FGFR3 (human)) [%] | kinase still bound, per cent of control (DCLK1 (human)) [%] | kinase still bound, per cent of control (MAP4K1 (human)) [%] | kinase still bound, per cent of control (MAP3K10 (human)) [%] | kinase still bound, per cent of control (PAK4 (human)) [%] | kinase still bound, per cent of control (STK38L (human)) [%] | kinase still bound, per cent of control (EPHA1 (human)) [%] | kinase still bound, per cent of control (MINK1 (human)) [%] | kinase still bound, per cent of control (MAP2K4 (human)) [%] | kinase still bound, per cent of control (STK16 (human)) [%] | kinase still bound, per cent of control (PIM2 (human)) [%] | kinase still bound, per cent of control (NTRK3 (human)) [%] | other results |
| --- | --- | --- | --- | --- | --- | --- | --- | --- | --- | --- | --- | --- | --- | --- | --- | --- | --- | --- | --- | --- | --- |
| COc1cc(C(=O)NC2CCN(C)CC2)ccc1Nc1ncc2c(n1)N(C1CCCC1)CCC(=O)N2C(C)C | 100 | 100 | 100 | 100 | 100 | 100 | 100 | 100 | 100 | 100 | 100 | 100 | 100 | 100 | 100 | 100 | 100 | 100 | 100 | 100 | kinase still bound, per cent of control (TTK (human)): 100%; kinase still bound, per cent of control (EPHA8 (human)): 100%; kinase still bound, per cent of control (FLT3 (human)): 100%; kinase still bound, per cent of control (MAPK10 (human)): 100%; kinase still bound, per cent of control [1]: 100%; kinase still bound, per cent of control (LCK (human)): 100%; kinase still bound, per cent of control (TAOK3 (human)): 100%; kinase still bound, per cent of control (NTRK1 (human)): 100%; kinase still bound, per cent of control (SRMS (human)): 100%; kinase still bound, per cent of control (BLK (human)): 100%; kinase still bound, per cent of control (GAK (human)): 100%; kinase still bound, per cent of control (FER (human)): 100%; kinase still bound, per cent of control (BMPR1B (human)): 100%; kinase still bound, per cent of control (RPS6KA1 KD1 (human)): 100%; kinase still bound, per cent of control (FGFR2 (human)): 100%; kinase still bound, per cent of control (MKNK2 (human)): 100%; kinase still bound, per cent of control (FES (human)): 100%; kinase still bound, per cent of control (GSK3B (human)): 100%; kinase still bound, per cent of control (RPS6KA3 KD1 (human)): 100%; kinase still bound, per cent of control (DYRK1B (human)): 100% |
| C=CC(=O)Nc1cccc(Nc2nc(N[C@H]3CC[C@H](N(C)C)CC3)nc3c2ncn3C(C)C)c1 | 100 | 100 | 28 | 17 | 100 | 26 | 59 | 100 | 68 | 30 | 74 | 84 | 17 | 41 | 72 | 27 | 76 | 72 | 100 | 28 | kinase still bound, per cent of control (TTK (human)): 51%; kinase still bound, per cent of control (EPHA8 (human)): 100%; kinase still bound, per cent of control (FLT3 (human)): 2.6%; kinase still bound, per cent of control (MAPK10 (human)): 100%; kinase still bound, per cent of control [1]: 59%; kinase still bound, per cent of control (LCK (human)): 38%; kinase still bound, per cent of control (TAOK3 (human)): 28%; kinase still bound, per cent of control (NTRK1 (human)): 15%; kinase still bound, per cent of control (SRMS (human)): 88%; kinase still bound, per cent of control (BLK (human)): 17%; kinase still bound, per cent of control (GAK (human)): 44%; kinase still bound, per cent of control (FER (human)): 74%; kinase still bound, per cent of control (BMPR1B (human)): 31%; kinase still bound, per cent of control (RPS6KA1 KD1 (human)): 9.4%; kinase still bound, per cent of control (FGFR2 (human)): 62%; kinase still bound, per cent of control (MKNK2 (human)): 39%; kinase still bound, per cent of control (FES (human)): 85%; kinase still bound, per cent of control (GSK3B (human)): 94%; kinase still bound, per cent of control (RPS6KA3 KD1 (human)): 3.6%; kinase still bound, per cent of control (DYRK1B (human)): 49% |
